The target of this assay is T1, 14-3-3γ/RND3 complex (Homo sapiens, UniProt P61587+P61981).
T1 construct: RND3 pS240, PDB 8BFC; made in house; host or cells: E. coli NiCo21 (DE3)
The assay can be described thus: FA / TD-FA selectivity screen, RND3 client peptide. Type of assay: binding. To be noted: 100 μM compound; for effect on RND3 binding to 14-3-3γ over time / effect on 14-3-3γ/RND3 complex at short time lengths: TD-FA. Here is the method: Drugging the hub protein 14-3-3 raises the challenge of selectivity, given that 14-3-3 binds several hundred phosphoprotein partners (Figure 4a).[54] We hypothesized that the interplay of chemical reactivity, the topology, and functionality of the composite binding pocket shaped by 14-3-3 and the interaction partner drives selective stabilization of the 14-3-3/ERRγ complex.[53] To validate selectivity, molecular locks 5 and 10 were tested against a panel of nine 14-3-3 client peptides in an FA assay, and the SF100 was determined for each 14-3-3 PPI (Figure 4b and Figures S18–S20). This client panel contained a diverse representation of 14-3-3 binding proteins, differing for example in size and hydrophobicity of the +1 amino acid. Importantly, clients PKR and RND3, each containing a +1 Cys, were included in the panel.
To further assess off-target reactivity to +1 Cys-containing peptides, fragment 1, locks 5 and 10 were also screened against PKR and RND3 in the TD-FA assay.
Figure S20. KD and SF100 plot – selectivity screen. […]
nine different client peptides in presence of DMSO (negative control) or 100 µM of compound 1, 5 or 10 (based on binding curves in Figure S19). Also a bar plot representation of stabilization factor (SF100) of compounds 1, 5 and 10 for each of these peptides (bottom plot).
(1 picture or pasted object on this page, not shown here)
Experimental Section Biophysical Assays
14-3-3γ protein expression (FA, TSA, MS assays)
A pPROEX HTb expression vector encoding the human 14-3-3 protein gamma (14-3-3γ) with a N-terminal his6-tag was transformed by heat shock into NiCo21 (DE3) competent cells. Single colonies were cultured in 50 mL LB medium (100 µg/mL ampicillin). After overnight incubation at 37 °C, cultures were transferred to 2 L TB media (100 µg/mL ampicillin, 1 mM MgCl2) and incubated at 37 °C until an OD600 nm of 0.8 -1.2 was reached. Protein expression was then induced with 0.4 mM isopropyl-β-d-thiogalactoside (IPTG), and cultures were incubated overnight at 18 °C. Cells were harvested by centrifugation (8600 rpm, 20 minu tes, 4 °C) and resuspended in lysis buffer (50 mM Hepes, pH 8.0, 300 mM NaCl, 12.5 mM imidazole, 5 mM MgCl2, 2 mM βME) containing cOmplete™ EDTA-free Protease Inhibitor Cocktail tablets (1 tablet/100 ml lysate) and benzonase ( 5 µl/100 ml). After lysis using a C3 Emulsiflex-C3 homogenizer (Avestin), the cell lysate was cleared by centrifugation (20000 rpm, 30 minutes, 4 °C) and purified using Ni2+-affinity chromatography (Ni -NTA superflow cartridges, Qiagen). Typically two 5 mL columns (flow 5 mL/min) were use d for a 2 L culture in which the lysate was loaded on the column , washed with 10 CV wash buffer (50 mM Hepes, pH 8.0, 300 mM NaCl, 25 mM imidazole, 2 mM βME), and eluted in several fractions (2-4 CV) of elution buffer (50 mM Hepes, pH 8.0, 300 mM NaCl, 250 mM imidazole, 2 mM βME). Fractions containing the 14 -3-3 protein were combined and dialyzed into 25 mM HEPES pH 8.0, 100 mM NaCl, 10 mM MgCl2, 500 µM TCEP. Finally, the protein was concentrated to ∼60 mg/mL, analyzed Q-Tof LC/MS, and aliquots were flash-frozen for storage at −80 °C.
14-3-3σΔc C38N protein expression (Crystallography)
A pPROEX HTb expression vector encoding the human 14-3-3 protein sigma truncated after T231 (14-3-3σΔc), mutated C38N, and containing a N-terminal his6-tag was transformed by heat shock into NiCo21 (DE3) competent cells. Single colonies were cultured in 50 mL LB medium (100 µg/mL ampicillin). After overnight incubation at 37 °C, cultures were transferred to 2 L TB media (100 µg/mL ampicillin, 1 mM MgCl2) and incubated at 37 °C until an OD600 nm of 0.8-1.2 was reached. Protein expression was then induced with 0.4 mM isopropyl-β-d-thiogalactoside (IPTG), and cultures were incubated overnight at 18 °C. Cells were harvested by centrifugation (8600 rpm, 20 minutes, 4 °C) and resuspended in lysis buffer (50 mM Hepes, pH 8.0, 300 mM NaCl, 12.5 mM […]

Results on three molecules are retold here after paper PMC10064330, “Reversible Dual-Covalent Molecular Locking of the 14-3-3/ERRγ Protein–Protein Interaction as a Molecular Glue Drug Discovery Approach” (Journal of the American Chemical Society, 2023).

Each structure is given as a SMILES string.

T1 sequence (P61981 whole entry, other chains not shown): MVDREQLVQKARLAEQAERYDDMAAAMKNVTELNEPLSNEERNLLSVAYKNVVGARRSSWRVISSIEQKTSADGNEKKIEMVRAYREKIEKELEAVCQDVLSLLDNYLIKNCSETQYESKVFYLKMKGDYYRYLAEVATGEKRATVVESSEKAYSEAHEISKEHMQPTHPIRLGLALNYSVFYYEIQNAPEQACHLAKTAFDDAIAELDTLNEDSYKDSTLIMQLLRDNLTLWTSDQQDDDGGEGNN

As to `CN(C)CCSSCCN(C)C(=O)c1cc(Br)cc(C=O)c1` [compound 10], the “effect on RND3 binding to 14-3-3γ over time” value is on record as “enhancement in RND3 binding” and the “effect on 14-3-3γ/RND3 complex at short time lengths” value (shortened to “effect on 14-3-3γ/RND3 complex”) is recorded as “immediate destabilization”. This molecule returned an SF100 (RND3 peptide) of roughly 7.9.

On to `CN(C)CCSSCCN(C)C(=O)c1cccc(F)c1` [compound 1, reference compound], for which the “effect on RND3 binding to 14-3-3γ over time” value is listed as “remains an inhibitor” and the “effect on 14-3-3γ/RND3 complex” value is listed as “immediate destabilization”.

Take `CN(C)CCSSCCN(C)C(=O)c1ccc(C=O)c(F)c1` [compound 5]: the “effect on 14-3-3γ/RND3 complex” value is recorded as “immediate destabilization”.
